The text below walks through data of ChEMBL document CHEMBL5335860, “Imidazole Bioisostere Activators of Endopeptidase Neurolysin with Enhanced Potency and Metabolic Stability” (ACS Med Chem Lett, 2024).

Series [1] concerns the target T1, Neurolysin, mitochondrial (Homo sapiens, UniProt Q9BYT8). The series is described as follows: Activation of Nln (unknown origin) using Mca-Pro-Leu-Gly-Pro-D-Lys(DNP)- OH as substrate preincubated for 10 mins followed by substrate addition measured for 20 mins by fluorescence based assay.
Target sequence in this assay (Q9BYT8 whole entry): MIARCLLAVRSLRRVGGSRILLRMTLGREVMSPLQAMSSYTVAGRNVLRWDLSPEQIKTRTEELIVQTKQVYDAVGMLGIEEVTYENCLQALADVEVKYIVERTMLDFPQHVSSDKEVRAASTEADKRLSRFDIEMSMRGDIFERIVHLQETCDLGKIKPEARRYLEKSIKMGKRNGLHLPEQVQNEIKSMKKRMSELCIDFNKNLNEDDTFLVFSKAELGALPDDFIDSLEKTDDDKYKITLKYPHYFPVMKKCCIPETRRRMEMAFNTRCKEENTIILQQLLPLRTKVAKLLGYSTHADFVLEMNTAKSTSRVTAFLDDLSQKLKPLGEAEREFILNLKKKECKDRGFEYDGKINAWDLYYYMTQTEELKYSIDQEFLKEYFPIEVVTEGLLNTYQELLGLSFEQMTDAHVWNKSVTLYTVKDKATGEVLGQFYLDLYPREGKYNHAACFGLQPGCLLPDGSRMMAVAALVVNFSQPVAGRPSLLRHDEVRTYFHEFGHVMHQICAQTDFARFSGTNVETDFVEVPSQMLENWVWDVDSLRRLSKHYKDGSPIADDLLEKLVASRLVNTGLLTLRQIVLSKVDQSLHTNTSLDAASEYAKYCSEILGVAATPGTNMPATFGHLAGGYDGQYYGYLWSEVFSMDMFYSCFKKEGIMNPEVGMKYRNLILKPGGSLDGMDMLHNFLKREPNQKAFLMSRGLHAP
The target of series [2] is T1, Neurolysin, mitochondrial. The series is described as follows: Activation of Nln (unknown origin) using Mca-Pro-Leu-Gly-Pro-D-Lys(DNP)- OH as substrate preincubated for 10 mins followed by substrate addition measured for 20 mins by fluorescence based assay relative to control. The note with it: filed as activator, time 30.0 min.
Target sequence in this assay (Q9BYT8 38-704 limits assumed): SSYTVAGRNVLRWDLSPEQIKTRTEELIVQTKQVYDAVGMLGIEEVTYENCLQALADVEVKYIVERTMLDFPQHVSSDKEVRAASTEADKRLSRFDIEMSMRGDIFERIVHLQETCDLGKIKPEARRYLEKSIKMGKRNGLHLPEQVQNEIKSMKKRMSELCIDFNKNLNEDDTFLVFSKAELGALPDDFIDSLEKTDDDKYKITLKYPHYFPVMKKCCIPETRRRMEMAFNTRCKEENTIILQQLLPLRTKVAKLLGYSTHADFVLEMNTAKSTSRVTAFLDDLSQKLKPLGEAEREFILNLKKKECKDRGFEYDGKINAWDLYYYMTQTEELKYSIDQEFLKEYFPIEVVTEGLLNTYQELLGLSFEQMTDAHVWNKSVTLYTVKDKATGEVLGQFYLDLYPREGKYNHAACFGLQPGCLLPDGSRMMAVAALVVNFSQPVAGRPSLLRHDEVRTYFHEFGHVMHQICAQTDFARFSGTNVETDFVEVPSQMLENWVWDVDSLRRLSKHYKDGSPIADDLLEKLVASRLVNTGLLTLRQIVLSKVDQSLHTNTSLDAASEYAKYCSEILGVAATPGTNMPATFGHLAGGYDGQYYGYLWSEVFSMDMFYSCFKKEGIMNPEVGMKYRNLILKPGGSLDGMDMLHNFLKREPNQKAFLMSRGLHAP
Series [3] in a line: Half life in mouse plasma at 500 ng/ml measured for 4 hrs by LC-MS/MS analysis. The class given is ADME, cell-free.
Series [4] can be described thus: Permeability coefficient in co-culture of primary mouse astrocytes and immortalized mouse endothelial cells at 10 ug/ml by BBB assay. The class given is ADME. The note with it: dose 10 µg/ml, read-out: Kp (converted).
A short description of series [5]: Half life in mouse brain at 500 ng/ml measured for 4 hrs by LC-MS/MS analysis. The class given is ADME, tissue-based.
Series [6] concerns the target Thimet oligopeptidase (Homo sapiens) (UniProt P52888). The series is described as follows: Inhibition of recombinant THOP1 (unknown origin).
Series [7] has as its target Angiotensin-converting enzyme (Homo sapiens) (UniProt P12821). The experiment in a line: Inhibition of C-terminal 10-His-tagged recombinant human ACE (30 to 1261 residues) expressed in mouse myeloma cells. To be noted: Multiple myeloma cell.
Series [8] deals with Angiotensin-converting enzyme 2 (Homo sapiens) (UniProt Q9BYF1). The series is described as follows: Inhibition of C-terminal polyhis-tagged recombinant human ACE2 (1 to 740 residues) expressed in HEK293 cells. The class given is cell-based.
Chain of Angiotensin-converting enzyme 2 (Homo sapiens) (Q9BYF1 18-805 limits assumed): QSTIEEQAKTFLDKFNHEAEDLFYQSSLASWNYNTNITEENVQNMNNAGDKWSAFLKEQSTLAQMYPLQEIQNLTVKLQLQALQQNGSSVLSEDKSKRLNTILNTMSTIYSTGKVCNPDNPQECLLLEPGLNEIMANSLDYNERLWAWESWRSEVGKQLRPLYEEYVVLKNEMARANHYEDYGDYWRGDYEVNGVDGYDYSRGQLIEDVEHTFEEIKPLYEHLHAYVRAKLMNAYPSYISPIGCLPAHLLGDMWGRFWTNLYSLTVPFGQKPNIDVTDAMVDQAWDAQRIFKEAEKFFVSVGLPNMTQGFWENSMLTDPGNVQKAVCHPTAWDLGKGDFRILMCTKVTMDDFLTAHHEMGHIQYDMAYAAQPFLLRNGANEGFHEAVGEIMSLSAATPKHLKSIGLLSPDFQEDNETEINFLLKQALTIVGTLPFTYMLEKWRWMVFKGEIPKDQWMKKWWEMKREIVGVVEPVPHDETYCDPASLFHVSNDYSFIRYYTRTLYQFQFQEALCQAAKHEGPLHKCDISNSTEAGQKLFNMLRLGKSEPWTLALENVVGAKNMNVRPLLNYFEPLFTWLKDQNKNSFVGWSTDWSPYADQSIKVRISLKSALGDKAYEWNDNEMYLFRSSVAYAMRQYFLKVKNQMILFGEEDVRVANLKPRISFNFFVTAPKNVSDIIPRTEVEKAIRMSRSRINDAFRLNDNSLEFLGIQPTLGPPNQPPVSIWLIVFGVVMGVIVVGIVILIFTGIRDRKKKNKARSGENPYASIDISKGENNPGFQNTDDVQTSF
Series [9] has as its target Neprilysin (Homo sapiens) (UniProt P08473). The series is described as follows: Inhibition of N-terminal polyhis-tagged recombinant human neprilysin (52 to 750 residues) expressed in HEK293 cells. Type of series: cell-based.
The target of series [10] is Thimet oligopeptidase (Homo sapiens) (UniProt P52888). The experiment in a line: Inhibition of recombinant THOP1 (unknown origin) relative to control. The note with it: concentration not given here.
Chain of Thimet oligopeptidase (Homo sapiens) (P52888 whole entry, the tested form may be a part): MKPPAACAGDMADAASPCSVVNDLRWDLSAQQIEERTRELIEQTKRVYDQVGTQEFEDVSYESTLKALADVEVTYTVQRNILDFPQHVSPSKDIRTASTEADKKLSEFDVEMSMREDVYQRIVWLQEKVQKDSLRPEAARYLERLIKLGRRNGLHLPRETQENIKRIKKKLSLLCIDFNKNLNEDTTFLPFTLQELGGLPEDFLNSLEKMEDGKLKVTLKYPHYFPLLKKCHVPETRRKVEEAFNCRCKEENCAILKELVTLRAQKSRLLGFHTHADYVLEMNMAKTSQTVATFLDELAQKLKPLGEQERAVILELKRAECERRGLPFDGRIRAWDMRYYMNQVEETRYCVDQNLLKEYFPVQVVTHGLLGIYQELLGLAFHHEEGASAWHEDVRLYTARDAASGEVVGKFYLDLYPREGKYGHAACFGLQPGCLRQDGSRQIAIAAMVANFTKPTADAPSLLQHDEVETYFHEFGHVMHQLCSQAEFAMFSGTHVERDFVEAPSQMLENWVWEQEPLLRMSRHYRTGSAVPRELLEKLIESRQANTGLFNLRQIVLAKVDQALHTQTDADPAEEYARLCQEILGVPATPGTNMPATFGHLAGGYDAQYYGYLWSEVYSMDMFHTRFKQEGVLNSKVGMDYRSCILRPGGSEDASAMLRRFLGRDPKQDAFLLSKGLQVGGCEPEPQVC
The target in series [11] is Angiotensin-converting enzyme (Homo sapiens) (UniProt P12821). The experiment in a line: Inhibition of C-terminal 10-His-tagged recombinant human ACE (30 to 1261 residues) expressed in mouse myeloma cells relative to control. The note with it: concentration not given here.
Chain of Angiotensin-converting enzyme (Homo sapiens) (P12821 whole entry, the tested form may be a part): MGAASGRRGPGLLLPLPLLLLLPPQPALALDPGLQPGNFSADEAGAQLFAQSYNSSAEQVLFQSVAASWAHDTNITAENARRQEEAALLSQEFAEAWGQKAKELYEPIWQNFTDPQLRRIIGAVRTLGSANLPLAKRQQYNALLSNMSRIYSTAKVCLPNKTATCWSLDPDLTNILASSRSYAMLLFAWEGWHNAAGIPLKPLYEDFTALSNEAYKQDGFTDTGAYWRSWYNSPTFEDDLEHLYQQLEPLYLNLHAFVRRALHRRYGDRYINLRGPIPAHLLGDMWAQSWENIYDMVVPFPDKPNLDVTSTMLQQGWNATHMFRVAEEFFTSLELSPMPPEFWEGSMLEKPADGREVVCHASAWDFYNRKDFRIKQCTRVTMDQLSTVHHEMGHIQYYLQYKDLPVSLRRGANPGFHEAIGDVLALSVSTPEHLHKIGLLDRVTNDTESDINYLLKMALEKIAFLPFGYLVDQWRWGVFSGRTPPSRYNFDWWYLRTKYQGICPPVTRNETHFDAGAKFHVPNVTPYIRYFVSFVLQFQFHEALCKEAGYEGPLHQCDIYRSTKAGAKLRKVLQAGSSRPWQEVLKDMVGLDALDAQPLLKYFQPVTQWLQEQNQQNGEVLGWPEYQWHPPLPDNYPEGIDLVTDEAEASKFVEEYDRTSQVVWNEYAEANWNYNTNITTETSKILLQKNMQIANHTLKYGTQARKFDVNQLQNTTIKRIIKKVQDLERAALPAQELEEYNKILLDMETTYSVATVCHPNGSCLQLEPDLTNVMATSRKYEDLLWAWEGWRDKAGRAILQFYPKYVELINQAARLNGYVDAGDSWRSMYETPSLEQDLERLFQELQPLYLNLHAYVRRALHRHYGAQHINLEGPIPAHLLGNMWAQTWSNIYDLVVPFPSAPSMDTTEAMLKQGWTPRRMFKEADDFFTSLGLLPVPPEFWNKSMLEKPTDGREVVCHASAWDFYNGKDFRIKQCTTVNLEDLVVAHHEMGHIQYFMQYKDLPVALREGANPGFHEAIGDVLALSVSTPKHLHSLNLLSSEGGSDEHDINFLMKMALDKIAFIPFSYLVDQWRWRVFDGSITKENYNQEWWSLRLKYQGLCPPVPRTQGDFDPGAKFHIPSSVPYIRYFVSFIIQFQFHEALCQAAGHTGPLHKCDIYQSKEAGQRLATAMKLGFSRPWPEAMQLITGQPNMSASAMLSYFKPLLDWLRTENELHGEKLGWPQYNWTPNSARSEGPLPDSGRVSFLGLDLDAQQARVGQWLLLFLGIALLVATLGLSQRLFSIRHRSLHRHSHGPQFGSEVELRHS
The target in series [12] is Angiotensin-converting enzyme 2 (Homo sapiens) (UniProt Q9BYF1). The series is described as follows: Inhibition of C-terminal polyhis-tagged recombinant human ACE2 (1 to 740 residues) expressed in HEK293 cells relative to control. The class given is cell-based. To be noted: concentration not given here.
The target in series [13] is Neprilysin (Homo sapiens) (UniProt P08473). The series is described as follows: Inhibition of N-terminal polyhis-tagged recombinant human neprilysin (52 to 750 residues) expressed in HEK293 cells relative to control. The note with it: concentration not given here. Type of series: cell-based.
Chain of Neprilysin (Homo sapiens) (P08473 whole entry, the tested form may be a part): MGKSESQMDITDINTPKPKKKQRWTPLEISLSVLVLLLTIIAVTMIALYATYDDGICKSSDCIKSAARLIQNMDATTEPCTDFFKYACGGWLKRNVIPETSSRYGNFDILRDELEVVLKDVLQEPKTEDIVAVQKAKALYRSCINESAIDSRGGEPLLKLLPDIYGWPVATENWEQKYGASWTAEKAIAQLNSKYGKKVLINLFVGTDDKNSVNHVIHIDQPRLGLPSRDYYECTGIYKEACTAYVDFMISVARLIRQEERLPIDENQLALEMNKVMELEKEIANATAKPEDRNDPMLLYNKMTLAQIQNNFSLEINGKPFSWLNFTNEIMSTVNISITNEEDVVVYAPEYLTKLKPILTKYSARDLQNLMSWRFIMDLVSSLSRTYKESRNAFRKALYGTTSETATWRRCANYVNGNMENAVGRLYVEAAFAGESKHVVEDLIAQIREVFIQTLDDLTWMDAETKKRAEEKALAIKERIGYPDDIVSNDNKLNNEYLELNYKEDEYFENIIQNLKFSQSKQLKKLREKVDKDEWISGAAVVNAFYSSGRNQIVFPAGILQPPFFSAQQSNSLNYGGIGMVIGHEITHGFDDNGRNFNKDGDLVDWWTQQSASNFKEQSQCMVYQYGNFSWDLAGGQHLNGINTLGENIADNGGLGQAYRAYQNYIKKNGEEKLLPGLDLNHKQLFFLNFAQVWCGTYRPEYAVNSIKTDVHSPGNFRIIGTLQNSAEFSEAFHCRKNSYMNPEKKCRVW
A short description of series [14]: Drug concentration in brain of MCAO mouse model at 4 mg/kg, iv measured after 30 mins. Type of series: ADME, organism-based. The note with it: read-out: Ct.
A short description of series [15]: Elimination half life in MCAO mouse model at 4 mg/kg, iv. Type of series: ADME, organism-based. The note with it: in vivo, read-out: beta t1/2.

SMILES strings stand for the structures. Calls of active or inactive are those of the source. The rule behind the calls is not given here. Peptide text beside a SMILES is read from it. * marks the point of attachment. NHPhenethyl = c1ccc(CCN*)cc1

The EC50 is the concentration that produces a half-maximal response. Consider `N[C@@H](Cc1c[nH]cn1)C(=O)NCCc1ccc(F)cc1`, for which the EC50 in series [1] (read-out: EC50) came to 11.6 µM.

As usually defined, the Emax is the size of the effect at its maximum, as opposed to the concentration needed. Turning to `N[C@@H](Cc1c[nH]cn1)C(=O)N1CCC(Cc2ccccc2F)CC1`, the EC50 in series [1] (read-out: EC50) came to 4.3 µM. In series [2], this molecule gave an Emax of 237%.

With `N[C@@H](Cc1c[nH]cn1)c1ncc(-c2ccc3ccccc3c2)[nH]1`, the EC50 in series [1] (read-out: EC50) was 5.5 µM. In [2], this molecule showed an Emax of 268%.

In the case of `N[C@@H](Cc1c[nH]cn1)C(=O)N1CCc2ccccc2C1`, the EC50 in series [1] (read-out: EC50) came out at 32.6 µM. Further, the maximal response (Emax) in series [2] was found to be 380%.

Regarding `N[C@H](Cc1c[nH]cn1)C(=O)N1CCC(Cc2ccccc2F)CC1`, the concentration for a half-maximal effect (EC50) in series [1] (read-out: EC50) came out at 5.4 µM. The Emax in series [2] was 272%.

With `N[C@@H](Cc1c[nH]cn1)c1ncc(-c2ccc(Cl)cc2)[nH]1`, the EC50 in series [1] (read-out: EC50) worked out at 2.9 µM. In [2], the Emax was determined as 318%.

Regarding `CN(Cc1cccc2ccccc12)C(=O)[C@@H](N)Cc1c[nH]cn1`, the concentration for a half-maximal effect (EC50) in series [1] (read-out: EC50) amounted to 3.8 µM. Further, the maximal response (Emax) in series [2] worked out at 345%.

For `N[C@@H](Cc1c[nH]cn1)C(=O)NCCc1ccc(Cl)cc1`, the EC50 in series [1] (read-out: EC50) was found to be 25 µM. Moreover, in series [2], the maximal effect (Emax) came to 404%.

Take `CN(Cc1cccc2ccccc12)C(=O)[C@H](N)Cc1c[nH]cn1`: the concentration giving a half-maximal response (EC50) in series [1] (read-out: EC50) was found to be 3.6 µM. Besides, the maximal effect (Emax) in series [2] is 324%.

As usually defined, the inhibition is the change of the read-out against control, counted positive when it falls. Take `N[C@H](Cc1c[nH]cn1)c1ncc(-c2ccc(Cl)cc2)[nH]1`: the concentration giving a half-maximal response (EC50) in [1] (read-out: EC50) was 2 µM. Further, the half-life at 500 ng/ml was determined as 8.15 h in series [3] and 1.81 h in series [5]. For the same molecule, in [4], the Papp at 10 ug/ml was 6 ×10⁻⁶ cm/s. The molecule further yielded an Emax in [2] of 282%. The inhibition result in series [6], in series [7], in series [8] and in [9] was “inactive” each time.

`N[C@@H](Cc1c[nH]cn1)C(=O)N[C@@H](Cc1ccccc1)C(=O)O` (H-His-Phe-OH): the EC50 in series [1] (read-out: EC50) was determined as 85.5 µM. For the same molecule, the half-life at 500 ng/ml in series [3] worked out at 0.57 h. Also, the Papp at 10 ug/ml in [4] is 1.17 ×10⁻⁶ cm/s.

With `N[C@@H](Cc1c[nH]cn1)c1ncc(-c2cccc3ccccc23)[nH]1`, the EC50 in series [1] (read-out: EC50) amounted to 4.1 µM. In addition, the half-life at 500 ng/ml in [3] is > 16.7 h; in [5] it was 1.77 h. In addition, the Papp at 10 ug/ml in series [4] is 13.8 ×10⁻⁶ cm/s. The same molecule displayed an Emax in series [2] of 244%. In addition, the inhibition in series [10], in series [11], in series [12] and in [13] was 20% throughout.

As for `N[C@@H](Cc1c[nH]cn1)C(=O)Nc1cccc2cccnc12`, the EC50 in [1] (read-out: EC50) turned out to be 7 µM. In addition, the Papp at 10 ug/ml in series [4] is 19 ×10⁻⁶ cm/s. For the same molecule, the concentration at 0.5 h in [14] came out at 260 nM. In addition, the half-life in series [15] was determined as 0.5 h.

With `N[C@@H](Cc1c[nH]cn1)C(=O)Nc1ccccc1`, in series [1] (read-out: EC50), the concentration for a half-maximal effect (EC50) is 252 µM. In addition, the Emax in [2] came out at 467%.

For `N[C@@H](Cc1c[nH]cn1)C(=O)NCc1ccc2ccccc2c1`, in series [1] (read-out: EC50), the 50% effective concentration (EC50) is 4.4 µM. In addition, in series [2], the maximum response (Emax) was determined as 211%.

In the case of `CC(C)[C@H](NC(=O)[C@@H](N)Cc1c[nH]cn1)C(=O)NCc1cccc2ccccc12`, in series [1], the EC50 entry is given as “Not Active”.

Take `N[C@@H](Cc1c[nH]cn1)C(=S)NCc1cccc2ccccc12`: the EC50 in series [1] (read-out: EC50) was determined as 3.4 µM. In [2], the maximal response (Emax) is 279%.

For `N[C@@H](Cc1c[nH]cn1)C(=O)N(CCc1c[nH]c2ccccc12)Cc1ccccc1`, the EC50 in [1] (read-out: EC50) is 5.2 µM. This molecule also yielded an Emax in [2] of 307%.

For the molecule `N[C@@H](Cc1c[nH]cn1)C(=O)NCc1cccc2ccccc12`, the half-life at 500 ng/ml in series [3] was > 16.7 h; in [5], 1.34 h. Further, the Papp at 10 ug/ml in series [4] is 18.3 ×10⁻⁶ cm/s. In addition, the Emax in series [2] amounted to 264%.

With `N[C@@H](Cc1c[nH]cn1)C(=O)NCC(=O)c1ccc2ccccc2c1`, in [1], the EC50 result was “Not Active”.

As to `N[C@H](Cc1c[nH]cn1)c1ncc(-c2ccc3ccccc3c2)[nH]1`, the EC50 in series [1] (read-out: EC50) is 6.8 µM. Further, the Emax in [2] was determined as 138%.

For the molecule `N[C@@H](Cc1c[nH]cn1)C(=O)NCC(=O)c1ccc(Cl)cc1`, in [1] (read-out: EC50), the concentration giving a half-maximal response (EC50) is 33.7 µM. The Emax in series [2] is 130%.

`N[C@@H](Cc1c[nH]cn1)C(=O)N[C@@H](Cc1ccccc1)C(=O)NCCc1ccccc1` (H-His-Phe-NHPhenethyl): the EC50 in series [1] (read-out: EC50) is 5.4 µM. Also, the Emax in series [2] stood at 178%.

`N[C@@H](Cc1c[nH]cn1)C(=O)N[C@@H](Cc1ccccc1)C(=O)NCc1cccc2ccccc12`: the EC50 result in [1] was “Not Active”.
